Earlier results on one compound are cited in US20120148662A1, “Formulation” (priority 2010, published 2012).

The conditions of data set [1]: dosed conventionally.

`CCC(CC)CC1(C(=O)Nc2ccccc2SC(=O)C(C)C)CCCCC1` [dalcetrapib, S-[2-([[1-(2-ethylbutyl)-cyclohexyl]-carbonyl]amino)phenyl]2-methylpropanethioate]: the aqueous solubility entry is on record as “extremely low”. The oral bioavailability result in data set [1] is reported as “low”.
